Patent publication US10370348B2, “Tocopherol and tocopheryl quinone derivatives as correctors of lysosomal storage disorders” (The United States of America, as represented by the …, priority 2012, dated 2019)

Tested on: wild type cells
Assay: Reduction of cholesterol levels in wild type cells
Type: cell-based
Settings: with increasing concentration, FIG. 1A
Description: The half maximal effective concentration (EC-50) for delta-tocopherol and five analogues was measured in wild type and NPC 3123 cells. […] Further, in NPC cells (FIG. 1B), the cholesterol level drop was substantial relative to the control (no delta-tocopherol).

Cc1cc(O)cc2c1O[C@](C)(CCC[C@H](C)CCC[C@H](C)CCCC(C)C)CC2 [delta-tocopherol]
cholesterol levels in wild type cells: cholesterol levels dropped
